Assay results from PubChem BioAssay (NCI).
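Exposure lasted 48 hours, with cells grown in 96-well plates and compounds tested at five concentrations. TGI: concentration producing complete growth inhibition.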

Legend:
Assay in all cases: NCI tumour cell line growth inhibition, 48 h
T-47D breast = test system: T-47D breast
MALME-3M melanoma = test system: MALME-3M melanoma
A498 renal = test system: A498 renal
MDA-MB-435 = test system: MDA-MB-435
SK-OV-3 ovarian = test system: SK-OV-3 ovarian
CCRF-CEM leukemia = test system: CCRF-CEM leukemia
SF-268 CNS = test system: SF-268 CNS
COLO 205 colon = test system: COLO 205 colon
SF-295 CNS = test system: SF-295 CNS
MCF7 breast = test system: MCF7 breast
RXF 393 renal = test system: RXF 393 renal
HL-60(TB) leukemia = test system: HL-60(TB) leukemia
RPMI-8226 leukemia = test system: RPMI-8226 leukemia

Row | Compound | TGI (T-47D breast) [µM] | TGI (MALME-3M melanoma) [µM] | TGI (A498 renal) [µM] | TGI (MDA-MB-435) [µM] | TGI (SK-OV-3 ovarian) [µM] | TGI (CCRF-CEM leukemia) [µM] | TGI (SF-268 CNS) [µM] | TGI (COLO 205 colon) [µM] | TGI (SF-295 CNS) [µM] | TGI (MCF7 breast) [µM] | TGI (RXF 393 renal) [µM] | TGI (HL-60(TB) leukemia) [µM] | TGI (RPMI-8226 leukemia) [µM]
1 | COc1cc2cccc(N)c2cc1OC | > 100 | > 100 | > 100 | > 100 | > 100 | > 100 | > 100 | > 100 | > 100 | > 100 | > 100 | > 100 | > 100
2 | CCc1n[nH]c(=O)n1/N=C/c1ccc(C)cc1 | > 100 | > 100 | > 100 | > 100 | > 100 | > 100 | > 100 | > 100 | > 100 | > 100 | > 100 | > 100 | > 100
3 | C=C[C@@H]1C[C@]2(C(=O)OC)Cc3nc4ccccc4nc3CC(C(=O)OC)=C2O1 | > 100 | > 100 | > 100 | > 100 | > 100 | > 100 | > 100 | > 100 | > 100 | > 100 | > 100 | > 100 | > 100
4 | Cc1ccc(Nc2c(C#N)[n+]([O-])c3cc(Cl)ccc3[n+]2[O-])cc1 | > 100 | > 100 | > 100 | > 100 | > 100 | > 100 | > 100 | > 100 | > 100 | > 100 | > 100 | 21.1 | > 100
5 | Cc1nc2c(=O)n(-c3ccccc3)c3ccccc3c2o1 | > 100 | > 100 | > 100 | > 100 | > 100 | > 100 | > 100 | > 100 | > 100 | > 100 | > 100 | > 100 | > 100
6 | c1cc2c(c(NC3=NCCO3)c1)CCC2 | > 100 | > 100 | > 100 | > 100 | > 100 | > 100 | > 100 | > 100 | > 100 | > 100 | > 100 | > 100 | > 100
